According to ChEMBL document CHEMBL3751840, “Peptide-based inhibitors of protein-protein interactions” (Bioorg Med Chem Lett, 2016):
Each block holds one compound with its values, some of them ahead of it. Starred links: 1 amine or outer side, 2 acyl side, 3 side chain; linkers in the order of their positions; H or OH if unused. Positions of bridges follow the written chain, without caps; N, C: chain ends. Non-standard residues stand in square brackets, D forms with d. Residues, ends and D or L forms follow the SMILES beside them. X1 = O=C([C@H]1CNC[C@@H]1N[*:1])[*:2]; X2 = O=C([C@H]1CCC[C@@H]1N[*:1])[*:2]

Columns and labels:
[1] = target: Tumour suppressor p53/oncoprotein Mdm2 (Homo sapiens, UniProt P04637+Q00987); experiment: Inhibition of p53-HDM2 (unknown origin) interaction; type: protein assay
Sequence of Tumour suppressor p53/oncoprotein Mdm2 (P04637 whole entry): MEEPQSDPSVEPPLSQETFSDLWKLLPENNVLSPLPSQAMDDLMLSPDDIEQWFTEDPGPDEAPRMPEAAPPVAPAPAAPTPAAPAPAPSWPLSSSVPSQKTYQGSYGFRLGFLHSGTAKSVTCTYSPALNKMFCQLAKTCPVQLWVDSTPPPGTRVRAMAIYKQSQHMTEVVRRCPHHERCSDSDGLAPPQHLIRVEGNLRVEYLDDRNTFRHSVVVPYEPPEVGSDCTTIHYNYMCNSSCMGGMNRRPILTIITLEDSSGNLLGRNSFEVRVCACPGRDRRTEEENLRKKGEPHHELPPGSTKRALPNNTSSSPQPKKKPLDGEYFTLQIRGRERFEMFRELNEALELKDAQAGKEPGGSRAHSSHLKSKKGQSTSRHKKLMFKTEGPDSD
Sequence of Tumour suppressor p53/oncoprotein Mdm2 (Q00987 whole entry): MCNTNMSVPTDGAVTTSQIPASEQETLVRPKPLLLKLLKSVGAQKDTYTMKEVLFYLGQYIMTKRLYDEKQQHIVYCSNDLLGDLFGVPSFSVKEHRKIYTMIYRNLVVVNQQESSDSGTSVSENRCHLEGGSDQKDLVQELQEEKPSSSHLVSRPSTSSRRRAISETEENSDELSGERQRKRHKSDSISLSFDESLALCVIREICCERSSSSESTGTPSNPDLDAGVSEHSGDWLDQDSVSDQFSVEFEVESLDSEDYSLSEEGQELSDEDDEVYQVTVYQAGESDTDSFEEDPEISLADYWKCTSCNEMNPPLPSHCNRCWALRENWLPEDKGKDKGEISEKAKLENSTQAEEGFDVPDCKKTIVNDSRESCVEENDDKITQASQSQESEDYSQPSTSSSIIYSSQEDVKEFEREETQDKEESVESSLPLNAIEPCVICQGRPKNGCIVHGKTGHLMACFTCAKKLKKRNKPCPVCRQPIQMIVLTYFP

Estrogen receptor = target: T1, Estrogen receptor (Homo sapiens, UniProt P03372); experiment: Binding affinity to ERalpha (unknown origin)
T1 sequence (P03372 whole entry): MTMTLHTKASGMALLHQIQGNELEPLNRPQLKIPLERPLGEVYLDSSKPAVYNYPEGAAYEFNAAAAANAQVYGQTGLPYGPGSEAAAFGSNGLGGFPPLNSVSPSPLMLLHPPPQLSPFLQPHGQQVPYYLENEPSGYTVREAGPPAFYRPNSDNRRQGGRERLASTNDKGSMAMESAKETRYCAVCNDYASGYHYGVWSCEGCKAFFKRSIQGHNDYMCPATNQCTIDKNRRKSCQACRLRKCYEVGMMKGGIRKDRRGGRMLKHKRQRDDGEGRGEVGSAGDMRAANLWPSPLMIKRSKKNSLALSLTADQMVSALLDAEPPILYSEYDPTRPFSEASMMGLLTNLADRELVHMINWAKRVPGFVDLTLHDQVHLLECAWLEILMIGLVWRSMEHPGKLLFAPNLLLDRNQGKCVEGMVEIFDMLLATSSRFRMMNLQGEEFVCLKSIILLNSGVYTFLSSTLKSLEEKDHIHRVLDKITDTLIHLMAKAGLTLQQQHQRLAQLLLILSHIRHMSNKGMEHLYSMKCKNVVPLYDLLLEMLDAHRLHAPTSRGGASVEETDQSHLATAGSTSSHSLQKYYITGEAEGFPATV

Bcl-2-like protein 1 = Bcl-2-like protein 1 (Homo sapiens, UniProt Q07817); experiment: Inhibition of BCL-xL-BH3 domain (unknown origin) interaction
Sequence of Bcl-2-like protein 1 (Q07817 whole entry, the tested form may be a part): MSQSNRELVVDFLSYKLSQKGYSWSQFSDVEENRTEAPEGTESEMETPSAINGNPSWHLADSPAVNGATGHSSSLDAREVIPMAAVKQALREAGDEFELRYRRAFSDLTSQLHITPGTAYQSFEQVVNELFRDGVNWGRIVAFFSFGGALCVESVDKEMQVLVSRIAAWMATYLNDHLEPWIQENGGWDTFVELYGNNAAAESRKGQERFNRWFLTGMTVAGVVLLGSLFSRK

[2] = target: E3 ubiquitin-protein ligase Mdm2 (Homo sapiens, UniProt Q00987); experiment: Binding affinity to MDM2 (unknown origin)
Sequence of E3 ubiquitin-protein ligase Mdm2 (Q00987 whole entry): as the sequence (Q00987 whole entry) above

[3] = target: Menin/Histone-lysine N-methyltransferase MLL (Homo sapiens, UniProt O00255+Q03164); experiment: Inhibition of menin-MLL (unknown origin) interaction; type: protein assay

SMILES: CC(C)C[C@@H]1NC(=O)[C@H](Cc2c[nH]c3ccc(Cl)cc23)NC(=O)[C@H](CCC(=O)O)NC(=O)[C@H](Cc2ccccc2)NC(=O)[C@@H]2CCCN2C(=O)[C@H]2CCCN2C(=O)[C@H](Cc2ccccc2)NC(=O)[C@H](CCC(=O)O)NC(=O)[C@H](Cc2c[nH]c3ccccc23)NC(=O)[C@H](CC(=O)O)NC1=O
IC50 [1]: 140 nM

SMILES: CC(C)CCN(CC(=O)N(CCS(N)(=O)=O)CC(=O)N(CC(N)=O)Cc1ccc([N+](=O)[O-])cc1)C(=O)CN(CCCP(=O)(O)O)C(=O)CN(Cc1ccc([N+](=O)[O-])cc1)C(=O)CN(CCc1c[nH]c2ccccc12)C(=O)CN(CCCCP(=O)(O)O)C(=O)CN(Cc1ccc([N+](=O)[O-])cc1)C(=O)CN(CCc1ccccc1)C(=O)CNCc1ccc([N+](=O)[O-])cc1
IC50 [1]: 6600 nM

SMILES: CC(=O)N[C@@H](CCCNC(=N)N)C(=O)N[C@@H](Cc1c[nH]c2ccccc12)C(=O)NC1CCCCCCCNC(=O)[C@@H]2CCCN2C(=O)[C@H](CCCNC(=N)N)NC(=O)[C@H](C)NC(=O)[C@@H]2CCCN2C(=O)C(Cc2ccccc2)NC1=O (single isomer, unassigned)
Ki [3]: 23.8 nM

Other lines, results leading:

Kd (Estrogen receptor): 352 nM
SMILES: CC(=O)N[C@@H](Cc1cnc[nH]1)C(=O)N[C@@H](CCCCN)C(=O)N[C@@]1(C)CCCCCCCC[C@@](C)(C(=O)N[C@@H](CC(C)C)C(=O)N[C@@H](CCC(N)=O)C(=O)N[C@@H](CC(=O)O)C(=O)N[C@@H](CO)C(N)=O)NC(=O)[C@H](CCC(N)=O)NC(=O)[C@H](Cc2cnc[nH]2)NC(=O)[C@H](CC(C)C)NC1=O

Ki (Bcl-2-like protein 1): 2 nM
SMILES: CC(=O)N[C@H]1CNC[C@@H]1C(=O)N[C@@H](C)C(=O)N[C@H]1CCC[C@@H]1C(=O)N[C@@H](CCCNC(=N)N)C(=O)N[C@H]1CCC[C@@H]1C(=O)N[C@@H](CC(C)C)C(=O)N[C@H]1CCC[C@@H]1C(=O)N[C@@H](CCCCN)C(=O)N[C@@H](CC(C)C)C(=O)NCC(=O)N[C@@H](CC(=O)O)C(=O)N[C@@H](C)C(=O)N[C@@H](Cc1ccccc1)C(=O)N[C@@H](CC(N)=O)C(=O)N[C@@H](CCCNC(=N)N)C(N)=O (Ac-[X1]A[X2]R[X2]L[X2]KLGDAFNR-NH2)

Kd [2]: 17700 nM
SMILES: CC(C)C[C@H](NC(=O)[C@@H]1CSSC[C@H](N)C(=O)N[C@@H](CC(N)=O)C(=O)N[C@H]2CSSC[C@H](NC(=O)[C@H](CC(C)C)NC(=O)[C@H](Cc3ccccc3)NC(=O)[C@H]([C@@H](C)O)NC(=O)[C@H](CCC(=O)O)NC(=O)[C@@H]3CCCN3C(=O)[C@H](C)NC(=O)[C@H](CCCCN)NC2=O)C(=O)N[C@@H](Cc2ccc(O)cc2)C(=O)N[C@@H](Cc2c[nH]c3ccccc23)C(=O)N[C@@H](CCCNC(=N)N)C(=O)N1)C(=O)N[C@@H](CCC(N)=O)C(=O)N[C@@H](Cc1cnc[nH]1)C(N)=O (H-CNCKAPETFLCYWRCLQH-NH2; disulfide 1-15, 3-11)
